The results in this text go back to patent US8729089B2 (Gilead Sciences, Inc., priority 2006, dated 2014).

Data set [1] has as its system HCV replicon in human hepatoma Huh-7 cell line. Description: Anti-HCV replicon assay (EC50, luciferase). The class given is cell-based. Particulars: Hepatitis C virus, Huh-7, 72 h. An outline of the steps:
(§1)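 Cytotoxicity (CC50) measured by CellTiter-Glo and antiviral activity (EC50) by luciferase signal from lysed cells, both by luminescence. Replicon-bearing Huh-7 cells, 6000 per well, incubated 3 days at 37 °C with threefold-diluted compound (0.5% DMSO for DMSO-dissolved compounds).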
(In general: In antiviral work, replicon cells carry a viral genome segment that copies itself.)

Data set [2] is described as follows: CC50 assay (CellTiter-Glo) in Huh-7 HCV replicon cells. The format is cell-based, human. Particulars: human, 3 days incubation, CellTiter-Glo readout. The method in brief: as §1
(In ATP-based viability assays light output follows the ATP content of the culture.)

A word on the EC50: it is the concentration that produces a half-maximal response. As a reminder, the CC50 is the concentration at which the toxic effect on the cells reaches its halfway point. A low value points to greater toxicity to the cells. As to `NS(=O)(=O)c1ccc(CNc2nc(NCC(F)(F)F)c3nc(-c4ccc(NC(=O)C5(O)CC5)cc4)ccc3n2)cc1` [Example 180, 1-Hydroxy-cyclopropanecarboxylic acid {4-[2-(4-sulfamoyl-benzylamino)-4-(2,2,2-trifluoro-ethylamino)-pyrido[3,2-d]pyrimidin-6-yl]-phenyl}-amide], the EC50 in data set [1] is below 0.1 µM. Also, in data set [2], the CC50 at 3 days was above 25 µM.
`NS(=O)(=O)c1ccc(CNc2nc(NC3CC3)c3nc(-c4ccc(NC(=O)C5(O)CC5)cc4)ccc3n2)cc1` [Example 181, 1-Hydroxy-cyclopropanecarboxylic acid {4-[4-cyclopropylamino-2-(4-sulfamoyl-benzylamino)-pyrido[3,2-d]pyrimidin-6-yl]-phenyl}-amide] came in with an EC50 in data set [1] below 0.1 µM. For the same molecule, the CC50 at 3 days in data set [2] is below 5 µM.
As to `N[C@@H](CO)C(=O)Nc1ccc(-c2ccc3nc(NCc4ccc(S(N)(=O)=O)cc4)nc(NC4CC4)c3n2)cc1` [Example 182, 2-Amino-N-{4-[4-cyclopropylamino-2-(4-sulfamoyl-benzylamino)-pyrido[3,2-d]pyrimidin-6-yl]-phenyl}-3-hydroxy-propionamide], the EC50 in data set [1] was below 0.1 µM. Also, the CC50 at 3 days in data set [2] was 5 to 25 µM.
In the case of `Nc1ncc(-c2ccc3nc(NCc4ccc(S(N)(=O)=O)cc4)nc(NC4CC4)c3n2)s1` [Example 183, 4-{[6-(2-Amino-thiazol-5-yl)-4-cyclopropylamino-pyrido[3,2-d]pyrimidin-2-ylamino]-methyl}-benzenesulfonamide], the EC50 in data set [1] was below 0.1 µM. The molecule further gave a CC50 at 3 days in data set [2] of 5 to 25 µM.
Molecule `NS(=O)(=O)c1ccc(CNc2nc(NC3CC3)c3nc(-c4ccc(F)c(NS(=O)(=O)C5CC5)c4)ccc3n2)cc1` [Example 184, 4-{[6-(3-Cyclopropanesulfonylamino-4-fluoro-phenyl)-4-cyclopropylamino-pyrido[3,2-d]pyrimidin-2-ylamino]-methyl}-benzenesulfonamide] had an EC50 in data set [1] below 0.1 µM. The molecule further returned a CC50 at 3 days in data set [2] below 5 µM.
In turn, `NS(=O)(=O)c1ccc(CNc2nc(NC3CC3)c3nc(-c4ccc(C(=O)NC5CC5)cc4)ccc3n2)cc1` [Example 185, N-Cyclopropyl-4-[4-cyclopropylamino-2-(4-sulfamoyl-benzylamino)-pyrido[3,2-d]pyrimidin-6-yl]-benzamide] registered an EC50 in data set [1] below 0.1 µM. This molecule had a cytotoxic concentration (CC50) at 3 days in data set [2] of 5 to 25 µM.
`NC(=O)c1ccc(-c2ccc3nc(NCc4ccc(S(N)(=O)=O)cc4)nc(NC4CC4)c3n2)cc1` [Example 186, 4-[4-Cyclopropylamino-2-(4-sulfamoyl-benzylamino)-pyrido[3,2-d]pyrimidin-6-yl]-benzamide]: the EC50 in data set [1] is below 0.1 µM. Moreover, the CC50 at 3 days in data set [2] is above 25 µM.
Taken in the same sequence, the figures for `Nc1cnc(-c2ccc3nc(NCc4ccc(S(N)(=O)=O)cc4)nc(NCC(F)(F)F)c3n2)cn1` [Example 187, 4-{[6-(5-Amino-pyrazin-2-yl)-4-(2,2,2-trifluoro-ethylamino)-pyrido[3,2-d]pyrimidin-2-ylamino]-methyl}-benzenesulfonamide] were below 0.1 µM and above 25 µM.
As for `Nc1ncc(-c2ccc3nc(NCc4ccc(S(N)(=O)=O)cc4)nc(NCC(F)(F)F)c3n2)s1` [Example 188, 4-{[6-(2-Amino-thiazol-5-yl)-4-(2,2,2-trifluoro-ethylamino)-pyrido[3,2-d]pyrimidin-2-ylamino]-methyl}-benzenesulfonamide], the EC50 in data set [1] is below 0.1 µM. In addition, the half-maximal cytotoxic concentration (CC50) at 3 days in data set [2] was in the range of 5 to 25 µM.
`NS(=O)(=O)c1ccc(CNc2nc(NCC(F)(F)F)c3nc(-c4cn[nH]c4)ccc3n2)cc1` [Example 189, 4-{[6-(1H-Pyrazol-4-yl)-4-(2,2,2-trifluoro-ethylamino)-pyrido[3,2-d]pyrimidin-2-ylamino]-methyl}-benzenesulfonamide]: the EC50 in data set [1] is below 0.1 µM. Moreover, the CC50 at 3 days in data set [2] fell in the range of 5 to 25 µM.
As for `NS(=O)(=O)c1ccc(CNc2nc(NCC(F)(F)F)c3nc(-c4ccc(F)nc4)ccc3n2)cc1` [Example 190, 4-{[6-(6-Fluoro-pyridin-3-yl)-4-(2,2,2-trifluoro-ethylamino)-pyrido[3,2-d]pyrimidin-2-ylamino]-methyl}-benzenesulfonamide], the EC50 in data set [1] was below 0.1 µM. This molecule came in with a CC50 at 3 days in data set [2] below 5 µM.
Taken in the same sequence, the figures for `NS(=O)(=O)c1ccc(CNc2nc(NCC(F)(F)F)c3nc(-c4ccc(N5CCCC5=O)cc4)ccc3n2)cc1` [Example 191, 4-{[6-[4-(2-Oxo-pyrrolidin-1-yl)-phenyl]-4-(2,2,2-trifluoro-ethylamino)-pyrido[3,2-d]pyrimidin-2-ylamino]-methyl}-benzenesulfonamide] were below 0.1 µM and below 5 µM.
`NS(=O)(=O)c1ccc(CNc2nc(NCC(F)(F)F)c3nc(-c4ccc(Cl)cc4)ccc3n2)cc1` [Example 192, 4-{[6-(4-Chloro-phenyl)-4-(2,2,2-trifluoro-ethylamino)-pyrido[3,2-d]pyrimidin-2-ylamino]-methyl}-benzenesulfonamide]: the EC50 in data set [1] was below 0.1 µM. In data set [2], this molecule gave a CC50 at 3 days of 5 to 25 µM.
The matching figures for `CC(C)N1CCC(NS(=O)(=O)c2cc(-c3ccc4nc(NCc5ccc(S(N)(=O)=O)cc5)nc(NCC(F)(F)F)c4n3)ccc2Cl)CC1` [Example 193, 2-Chloro-N-(1-isopropyl-piperidin-4-yl)-5-[2-(4-sulfamoyl-benzylamino)-4-(2,2,2-trifluoro-ethylamino)-pyrido[3,2-d]pyrimidin-6-yl]-benzenesulfonamide]: below 0.1 µM and below 5 µM.
As for `CC(C)(C)OC(=O)NC1CCN(S(=O)(=O)c2cc(-c3ccc4nc(NCc5ccc(S(N)(=O)=O)cc5)nc(NCC(F)(F)F)c4n3)ccc2Cl)CC1` [Example 194, (1-{2-Chloro-5-[2-(4-sulfamoyl-benzylamino)-4-(2,2,2-trifluoro-ethylamino)-pyrido[3,2-d]pyrimidin-6-yl]-benzenesulfonyl}-piperidin-4-yl)-carbamic acid tert-butyl ester], the EC50 in data set [1] is below 0.1 µM. Further, in data set [2], the CC50 at 3 days was below 5 µM.
The matching figures for `NS(=O)(=O)c1ccc(CNc2nc(NCC(F)(F)F)c3nc(-c4ccc(Cl)c(S(=O)(=O)NCCN5CCCC5)c4)ccc3n2)cc1` [Example 195, 2-Chloro-N-(2-pyrrolidin-1-yl-ethyl)-5-[2-(4-sulfamoyl-benzylamino)-4-(2,2,2-trifluoro-ethylamino)-pyrido[3,2-d]pyrimidin-6-yl]-benzenesulfonamide]: below 0.1 µM and below 5 µM.
Take `CC(C)N1CCN(S(=O)(=O)c2cc(-c3ccc4nc(NCc5ccc(S(N)(=O)=O)cc5)nc(NCC(F)(F)F)c4n3)ccc2Cl)CC1` [Example 196, 4-{[6-[4-Chloro-3-(4-isopropyl-piperazine-1-sulfonyl)-phenyl]-4-(2,2,2-trifluoro-ethylamino)-pyrido[3,2-d]pyrimidin-2-ylamino]-methyl}-benzenesulfonamide]: in data set [1], the EC50 is below 0.1 µM. In data set [2], the CC50 at 3 days is below 5 µM.
Molecule `NS(=O)(=O)c1ccc(CNc2nc(NCC(F)(F)F)c3nc(-c4ccc(Cl)c(S(=O)(=O)N[C@@H]5CCNC5)c4)ccc3n2)cc1` [Example 197, 2-Chloro-N-pyrrolidin-3-yl-5-[2-(4-sulfamoyl-benzylamino)-4-(2,2,2-trifluoro-ethylamino)-pyrido[3,2-d]pyrimidin-6-yl]-benzenesulfonamide] returned an EC50 in data set [1] below 0.1 µM. In data set [2], this molecule gave a CC50 at 3 days below 5 µM.
Molecule `COCCNS(=O)(=O)c1cc(-c2ccc3nc(NCc4ccc(S(N)(=O)=O)cc4)nc(NCC(F)(F)F)c3n2)ccc1Cl` [Example 198, 2-Chloro-N-(2-methoxy-ethyl)-5-[2-(4-sulfamoyl-benzylamino)-4-(2,2,2-trifluoro-ethylamino)-pyrido[3,2-d]pyrimidin-6-yl]-benzenesulfonamide] yielded an EC50 in data set [1] below 0.1 µM. The molecule also registered a CC50 at 3 days in data set [2] of 5 to 25 µM.
With `CC(C)(CN1CCCC1)NC(=O)c1ccc(-c2ccc3nc(NCc4ccc(S(N)(=O)=O)cc4)nc(NCC(F)(F)F)c3n2)cc1` [Example 199, N-(1,1-Dimethyl-2-pyrrolidin-1-yl-ethyl)-4-[2-(4-sulfamoyl-benzylamino)-4-(2,2,2-trifluoro-ethylamino)-pyrido[3,2-d]pyrimidin-6-yl]-benzamide], the EC50 in data set [1] is below 0.1 µM. This molecule had a CC50 at 3 days in data set [2] below 5 µM.
In turn, `NS(=O)(=O)c1ccc(CNc2nc(NCC(F)(F)F)c3nc(-c4ccc(Cl)c(S(=O)(=O)NC5CCNCC5)c4)ccc3n2)cc1` [Example 200, 2-Chloro-N-piperidin-4-yl-5-[2-(4-sulfamoyl-benzylamino)-4-(2,2,2-trifluoro-ethylamino)-pyrido[3,2-d]pyrimidin-6-yl]-benzenesulfonamide] came in with an EC50 in data set [1] below 0.1 µM. In data set [2], the CC50 at 3 days is below 5 µM.
In data set [1], `CC(C)(C)OC(=O)N1CCC(NS(=O)(=O)c2cc(-c3ccc4nc(NCc5ccc(S(N)(=O)=O)cc5)nc(NCC(F)(F)F)c4n3)ccc2Cl)CC1` [Example 201, 4-{2-Chloro-5-[2-(4-sulfamoyl-benzylamino)-4-(2,2,2-trifluoro-ethylamino)-pyrido[3,2-d]pyrimidin-6-yl]-benzenesulfonylamino}-piperidine-1-carboxylic acid tert-butyl ester] returned an EC50 below 0.1 µM. For the same molecule, in data set [2], the CC50 at 3 days lay within 5 to 25 µM.
In data set [1], `NS(=O)(=O)c1ccc(CNc2nc(NCC(F)(F)F)c3nc(-c4ccc(Cl)c(S(N)(=O)=O)c4)ccc3n2)cc1` [Example 202, 2-Chloro-5-[2-(4-sulfamoyl-benzylamino)-4-(2,2,2-trifluoro-ethylamino)-pyrido[3,2-d]pyrimidin-6-yl]-benzenesulfonamide] yielded an EC50 below 0.1 µM. Moreover, the cytotoxic concentration (CC50) at 3 days in data set [2] was below 5 µM.
In turn, `NS(=O)(=O)c1ccc(CNc2nc(NCC(F)(F)F)c3nc(-c4ccnnc4)ccc3n2)cc1` [Example 203, 4-{[6-Pyridazin-4-yl-4-(2,2,2-trifluoro-ethylamino)-pyrido[3,2-d]pyrimidin-2-ylamino]-methyl}-benzenesulfonamide] registered an EC50 in data set [1] below 0.1 µM. In data set [2], the CC50 at 3 days was above 25 µM.
